Assays:
Assay type in all cases: cell-based, Murine
[1] = test system: NO production in LPS-activated RAW 264.7 macrophages; test: Inhibition of nitric oxide (NO) production in LPS-activated RAW 264.7 macrophages (Griess reagent); conditions: for amount of NO produced: compound at 25 µM, LPS 1 μg/mL, 24 h, untreated and stimulated control 6.08 µM
Method: Murine macrophage RAW 264.7 cell line obtained from the American Type Culture Collection (Rockville, MD, United States) was maintained in DMEM supplemented with 10% fetal calf serum (FCS) and 1% penicillin/streptomycin/fungizone (PSF) under standard cell culture conditions at 37°C and 5% CO2 in a humidified environment. The RAW 264.7 macrophage cells were seeded in 96 well-microtitre plates (2 × 10^5 cells/mL). They were activated by incubation in a medium containing 1 μg/mL LPS alone (control) or lipopolysaccharide, and compounds at concentration of 3.12 µM, 6.25 µM, 12.5 µM and 25 µM dissolved in DMSO. […] After 24h, the amount of nitric oxide released from macrophages was determined using the Griess reagent as previously described ([Dzoyem and Eloff, 2015]).

[2] = Cytotoxicity MTT assay on RAW 264.7 cells; conditions: mouse, RAW 264.7 macrophage cells, 48 h incubation, read-out: IC50, cytotoxic effect on RAW264.7 cells
Method: Murine macrophage RAW 264.7 cell line obtained from the American Type Culture Collection (Rockville, MD, United States) was maintained in DMEM supplemented with 10% fetal calf serum (FCS) and 1% penicillin/streptomycin/fungizone (PSF) under standard cell culture conditions at 37°C and 5% CO2 in a humidified environment.
The cytotoxic effect of compounds on RAW 264.7 cells was assessed using the 3-(4, 5-dimethylthiazol-2-yl)-2, 5-diphenyl tetrazolium bromide (MTT) assay as established by Mosmann ([Mosmann, 1983]) with slight modifications. Briefly, cells were seeded at a density of 1 × 10^5 cells/mL (100 µL) in 96-well microtitre plates and incubated at 37°C and 5% CO2 in a humidified environment. After 24 h incubation, 100 µL of compounds (at concentration ranged from to 250 μM–1.95 µM) were added to the wells containing cells and further incubated for 48 h in a CO2 incubator. A suitable control (untreated cells) was included and doxorubicin was used as a positive reference. Thereafter, the medium in each well was aspirated from the cells, which were then washed with PBS, and finally fresh medium (200 µL) was added to each well. Then, 30 µL of MTT (5 mg/mL in PBS) was added to each well and the plates were incubated at 37°C for 4 h. The medium was aspirated from the wells and DMSO was added to solubilize the formed formazan crystals. The absorbance was read at 570 nm (SpectraMax 190, Molecular devices). The percentage of cell inhibition was calculated with reference to the control (untreated cells taken as 100% viability). Then, the IC50 values of plant compounds showing more than 50% cell growth inhibition were calculated by plotting the percentage inhibition against the concentration.

TNF-α = test: Th1/Th2 cytokine measurement (Cytometric Bead Array) in LPS-stimulated Raw 264.7 cells, TNF-α; conditions: compound at 20 µM; for effect on TNF-α production (in words): vs stimulated and untreated control
Method: Raw 264.7 cells were seeded at 2 × 10^5 cells/mL in a 48-well microplate and allowed to adhere for 24 h, then treated with LPS 0.1 μg/mL and with compounds (1), (5) and (6) at 20 µM. Untreated cells and indomethacin (10 µM) were used as controls. After 24 h of incubation, the supernatant was collected and the amount of pro-inflammatory Th1 cytokines (IFN-γ, TNF-α, and IL-2) and anti-inflammatory Th2 cytokines (IL-4, IL-6, and IL-10) released measured. The experiment was performed according to the manufacturer’s instructions using BD™ Cytometric Bead Array (CBA) […] Th1/Th2 Cytokine Kit (BD-Biosciences), and data were acquired on a BD LSR Fortessa™ cell analyzer flow cytometer.

COX-2 = biological target: T1, COX-2 (Mus musculus, UniProt Q05769); test: Fluorometric COX activity assay in lysate of LPS-treated Raw 264.7 cells, COX-2; conditions: compound at 20 µM, LPS 0.1 μg/mL, 24 h; untreated control 99.85 µU/mg
T1 construct: The cell lysate was centrifuged at 12000 x g for 3 min and the supernatant was collected for COX activity assay; endogenous in cells
T1 sequence (Q05769 18-604): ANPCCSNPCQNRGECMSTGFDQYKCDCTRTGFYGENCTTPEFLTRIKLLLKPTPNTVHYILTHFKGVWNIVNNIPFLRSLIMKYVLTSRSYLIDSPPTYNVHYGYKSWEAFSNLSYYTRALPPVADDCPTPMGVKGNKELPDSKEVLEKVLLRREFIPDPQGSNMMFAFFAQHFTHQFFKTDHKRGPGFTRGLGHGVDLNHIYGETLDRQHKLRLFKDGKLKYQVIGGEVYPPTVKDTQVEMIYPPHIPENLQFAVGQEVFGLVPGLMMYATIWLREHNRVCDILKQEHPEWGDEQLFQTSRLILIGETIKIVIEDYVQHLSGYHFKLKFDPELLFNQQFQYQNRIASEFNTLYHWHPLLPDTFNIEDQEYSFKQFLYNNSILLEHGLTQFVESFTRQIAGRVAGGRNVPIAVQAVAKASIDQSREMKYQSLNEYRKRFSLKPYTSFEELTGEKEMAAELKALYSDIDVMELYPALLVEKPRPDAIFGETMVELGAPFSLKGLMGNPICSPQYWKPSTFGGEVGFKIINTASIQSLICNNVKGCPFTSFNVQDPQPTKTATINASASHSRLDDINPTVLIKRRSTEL
Method: The fluorometric cyclooxygenase activity assay kit (Biovision) was used to evaluate the activity of COX-1 and COX-2 enzymes. Raw 264.7 cells were seeded at 2 × 10^5 cells/mL in a 48-well microplate, and allowed to adhere for 24 h, then treated with LPS 0.1 μg/mL and compounds (1), (5) and (6) at 20 µM against Raw 264.7 cells. After 24 h the cyclooxygenase enzyme (COX-1 and COX-2) activity assay was performed. Cells were detached with TNE buffer (Tris 40 mM, NaCl 150 mM, EDTA 1 mM) and washed with PBS (1x), then re-suspended in 1 mL PBS (1x), transferred into 1.5 mL tube, and centrifuged at 500 x g for 3 min. The pellet was then re-suspended in 0.5 mL of lysis buffer with a protease inhibitor cocktail, vortexed, and incubated at 4°C for 5 min. The cell lysate was centrifuged at 12000 x g for 3 min and the supernatant was collected for COX activity assay. The COX activity was assessed using the fluorometric cyclooxygenase activity assay kit (Biovision) following the manufacturer’s instructions. The assay includes COX-1 and COX-2 specific inhibitors to differentiate the activity of COX-1 and COX-2 as well as other peroxidases. Indomethacin (10 µM) was used as a standard drug and appropriate controls were also included.

SMILES	inhibitory effect on NO production at the highest concentration (in words) ([1]; 25 µM, LPS-stimulated RAW 264.7)	IC50 at 48 h [2] [µM]	TNF-α level (TNF-α; LPS 0.1 μg/mL, 24 h, stimulated untreated control 4356.86 pg/mL) [pg/mL]	COX-2 activity (COX-2) [µU/mg]	amount of NO produced [1] [µM]	effect on TNF-α production (in words) (TNF-α)
CC(C)=CCc1c2c(c3oc4c(O)cccc4c(=O)c3c1O)C=CC(C)(C)O2 [Compound 1, Ananixanthone]	remarkable inhibitory effect	> 100	3854.61	59.33	–	–
CC(C)=CCC/C(C)=C/C[C@]12C[C@@H](CC=C(C)C)C(C)(C)[C@](C/C=C(\C)CCC=C(C)C)(C(=O)C(C(=O)c3ccc(O)c(O)c3)=C1O)C2=O [Compound 5, Guttiferone O]	–	64.5	–	88.10	0.3	significantly reduces
CC(C)=CCC/C(C)=C/C[C@]12C[C@@H](CC=C(C)C)C(C)(C)[C@](CC=C(C)C)(C(=O)C(C(=O)c3ccc(O)c(O)c3)=C1O)C2=O [Compound 6, Guttiferone M]	–	61.2	–	43.84	0.54	moderate decrease
